Laboratory results taken from BigSolDB 2.1.

CC[C@@]1(O)C(=O)OCc2c1cc1n(c2=O)Cc2cc3ccccc3nc2-1
Conditions | solubility (mole fraction)
in chloroform, 275.76 K | 0.000222
in chloroform, 279.07 K | 0.000246
in chloroform, 282.38 K | 0.000272
in chloroform, 285.02 K | 0.000288
in chloroform, 287.55 K | 0.000308
in chloroform, 291.19 K | 0.000332
in chloroform, 294.18 K | 0.000354
in chloroform, 297.25 K | 0.000375
in chloroform, 300.57 K | 0.000404
in chloroform, 303.1 K | 0.000421
in chloroform, 305.96 K | 0.000441
in chloroform, 308.51 K | 0.000465
in chloroform, 311.59 K | 0.000489
in chloroform, 315.12 K | 0.000513
in chloroform, 318.31 K | 0.000544
in chloroform, 322.39 K | 0.000575
in chloroform, 326.25 K | 0.000613
in ethanol, 277.98 K | 9.03e-06
in ethanol, 281.62 K | 1.08e-05
in ethanol, 284.67 K | 1.25e-05
in ethanol, 287.95 K | 1.39e-05
in ethanol, 291 K | 1.6e-05
in ethanol, 294.63 K | 1.78e-05
in ethanol, 297.81 K | 2.01e-05
in ethanol, 301.09 K | 2.24e-05
in ethanol, 304.26 K | 2.46e-05
in ethanol, 307.54 K | 2.76e-05
in ethanol, 310.47 K | 3.06e-05
in ethanol, 313.63 K | 3.33e-05
in ethanol, 316.57 K | 3.68e-05
in ethanol, 319.26 K | 4.01e-05
in ethanol, 321.7 K | 4.31e-05
in ethanol, 324.43 K | 4.64e-05
in ethanol, 326.3 K | 4.91e-05
in methanol, 277.52 K | 1.27e-05
in methanol, 280.45 K | 1.43e-05
in methanol, 283.37 K | 1.57e-05
in methanol, 286.2 K | 1.72e-05
in methanol, 289.49 K | 1.95e-05
in methanol, 293.24 K | 2.2e-05
in methanol, 296.6 K | 2.49e-05
in methanol, 299.68 K | 2.74e-05
in methanol, 302.78 K | 3.03e-05
in methanol, 305.61 K | 3.35e-05
in methanol, 308.45 K | 3.66e-05
in methanol, 311.02 K | 4e-05
in methanol, 313.77 K | 4.37e-05
in methanol, 316.53 K | 4.78e-05
in methanol, 319.02 K | 5.2e-05
in methanol, 321.42 K | 5.59e-05
in methanol, 323.48 K | 5.95e-05
